Laboratory results reported in patent US11911497B2, “Rebaudioside E and food products sweetened with rebaudioside E” (Conagen Inc., priority 2013, dated 2024).

Columns and labels:
[1] = Sourness test, panelists detect presence of sourness by yes or no rating; set-up: species or system human
Procedure: (§1) A standard sweetness test method was employed. Briefly, training sample solutions made of sucrose in water at 1-5% concentration (Brix) at 1% increments were prepared. Reb-E test samples were made of Reb-E in water at 20-60 ppm (parts per million). Panelists were trained to recognize and differentiate between each training solution. Three test solutions of known sucrose concentrations were given to panelists to ensure equal training and to establish a baseline.
(§2) Test solutions were randomized using a random number generator. Two sets of tests were generated for each panelist. Saltine crackers were provided along with water for wash out between test solutions. Each panelist rated each of the solutions according to sweetness (in Brix) and sourness (yes or no). The intensity of each attribute was also collected.
The ability of Reb-E to overcome sourness was also measured, and compared to sucrose. Panelists were asked to detect the presence of sourness by a yes or no rating.

[2] = Standard sweetness test, panelists rate sweetness (Brix) of solutions in water; set-up: species or system human; conditions: for Brix (average): average of all panelists
Procedure: as §1, §2

[3] = Reb-E 20 PPM + 0.6% citric acid
[4] = Reb-E 40 PPM + 0.6% citric acid
[5] = Reb-E 50 PPM + 0.6% citric acid
[6] = Reb-E 60 PPM + 0.6% citric acid
[7] = sucrose 10 ×1000 PPM (1%) + 0.6% citric acid
[8] = sucrose 20 ×1000 PPM (2%) + 0.6% citric acid
[9] = sucrose 30 ×1000 PPM (3%) + 0.6% citric acid
[10] = sucrose 40 ×1000 PPM (4%) + 0.6% citric acid

SMILES: C=C1C[C@@]23CCC4[C@](C)(C(=O)OC5OC(CO)C(O)C(O)C5OC5OC(CO)C(O)C(O)C5O)CCC[C@@]4(C)[C@@H]2CCC1(OC1OC(CO)C(O)C(O)C1OC1OC(CO)C(O)C(O)C1O)C3 (stereo partly drawn) [Reb-E, 13-[(2-O-β-D-glucopyranosyl-β-D-glucopyranosyl)oxy] ent-kaur-16-en-19-oic acid-(2-O-β-D-glucopyranosyl-β-D-glucopyranosyl) ester]
- Sourness detected: No (number of ratings) [1, 3]: 2
- Sourness detected: Yes (number of ratings) [1, 3]: 10
- Sourness detected: No (number of ratings) [1, 4]: 2
- Sourness detected: Yes (number of ratings) [1, 4]: 4
- Sourness detected: No (number of ratings) [1, 5]: 1
- Sourness detected: Yes (number of ratings) [1, 5]: 11
- Sourness detected: No (number of ratings) [1, 6]: 0
- Sourness detected: Yes (number of ratings) [1, 6]: 6
- Effectiveness in covering the sourness compared to sucrose solutions ([1]; within the tested range): not as effective in covering the sourness as compared to sucrose solutions
- Correlation between sweetness and concentration (FIG. 1) ([2]; Reb-E 20-60 ppm): near linear correlation
- Brix (average) ([2]; Reb-E 20 PPM in water + 0.6% citric acid): 1.2 Brix
- Brix (average) ([2]; Reb-E 40 PPM in water + 0.6% citric acid): 2.1 Brix
- Brix (average) ([2]; Reb-E 50 PPM in water + 0.6% citric acid): 2.2 Brix
- Brix (average) ([2]; Reb-E 60 PPM in water + 0.6% citric acid): 2.6 Brix

SMILES: OC[C@H]1O[C@@](CO)(O[C@H]2O[C@H](CO)[C@@H](O)[C@H](O)[C@H]2O)[C@@H](O)[C@@H]1O [Sucrose, sucrose, reference compound]
- Sourness detected: No (number of ratings) [1, 7]: 4
- Sourness detected: Yes (number of ratings) [1, 7]: 8
- Sourness detected: No (number of ratings) [1, 8]: 2
- Sourness detected: Yes (number of ratings) [1, 8]: 4
- Sourness detected: No (number of ratings) [1, 9]: 5
- Sourness detected: Yes (number of ratings) [1, 9]: 1
- Sourness detected: No (number of ratings) [1, 10]: 2
- Sourness detected: Yes (number of ratings) [1, 10]: 4
- Brix (average) ([2]; sucrose 10 ×1000 PPM (1%) in water + 0.6% citric acid): 1.3 Brix
- Brix (average) ([2]; sucrose 20 ×1000 PPM (2%) in water + 0.6% citric acid): 2.6 Brix
- Brix (average) ([2]; sucrose 30 ×1000 PPM (3%) in water + 0.6% citric acid): 3.4 Brix
- Brix (average) ([2]; sucrose 40 ×1000 PPM (4%) in water + 0.6% citric acid): 5.2 Brix
